ChEMBL document CHEMBL1201862, “PubChem BioAssay data set” (2004)
Blank lines part the entries; values can stand above or below the compound they belong to. The source made the active and inactive calls.

Columns and labels:
Transthyretin = Transthyretin (Homo sapiens, UniProt P02766); test: Luminescence-based cell-based high throughput dose response assay to identify activators of Transthyretin (TTR) transcription.; assay type: functional
[1] = MC4R antagonists, dose response, counter-screen for LGR2 antagonist project, cell-based, plate reader, cherry pick (AID 743444); assay type: functional;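 also: transfected HEK 293 cells stimulated with alpha-MSH peptide; potency of inhibitors of the alpha-MSH evoked signal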
[2] = HEK293 cell cytotoxicity, dose response, cytotoxicity control, plate reader, cherry-picked samples (AID 743446); assay type: functional, cell-based
[3] = LGR2 antagonists, dose response, cell-based, HEK293, CRE-luciferase reporter, cherry pick, set 2 (AID 743343); assay type: functional;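 also: transfected cells were stimulated with diluted bursicon conditioned medium after compound addition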
[4] = Luminescence Cell-Based Dose Confirmation HTS to Identify Inhibitors of Platelet Dense Granule Release. [Related pubchem assays: 1663 (Primary HTS), 1678 (Summary of Project)]; assay type: functional
[5] = HepG2 cell cytotoxicity, dose response, cytotoxicity control, plate reader, cherry-pick, antagonist series (AID 743416); assay type: functional, cell-based
[6] = A549 cell cytotoxicity, dose response, cytotoxicity control, plate reader, cherry-pick, antagonist series (AID 743412); assay type: functional, cell-based
BJ [7] = test: cytotoxicity toward BJ-TERT-LT-ST fibroblasts, dose response, cell-based, RAS-independent, luminescence (AID 1935); assay type: functional; conditions: Homo sapiens;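 also: BJ fibroblasts immortalized with TERT plus LT and ST oncogenes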
BJ [8] = test: cells; assay type: functional, cell-based; conditions: Homo sapiens
BJ [9] = test: cytotoxicity toward BJ-TERT fibroblasts, dose response, cell-based, RAS-independent, luminescence (AID 1933); assay type: functional; conditions: Homo sapiens
[10] = molecular target: Luciferin 4-monooxygenase (Photinus pyralis, UniProt P08659); test: firefly luciferase enzyme inhibitors, dose response, biochemical, luminescence (AID 1891)
Sequence of Luciferin 4-monooxygenase (P08659 whole entry): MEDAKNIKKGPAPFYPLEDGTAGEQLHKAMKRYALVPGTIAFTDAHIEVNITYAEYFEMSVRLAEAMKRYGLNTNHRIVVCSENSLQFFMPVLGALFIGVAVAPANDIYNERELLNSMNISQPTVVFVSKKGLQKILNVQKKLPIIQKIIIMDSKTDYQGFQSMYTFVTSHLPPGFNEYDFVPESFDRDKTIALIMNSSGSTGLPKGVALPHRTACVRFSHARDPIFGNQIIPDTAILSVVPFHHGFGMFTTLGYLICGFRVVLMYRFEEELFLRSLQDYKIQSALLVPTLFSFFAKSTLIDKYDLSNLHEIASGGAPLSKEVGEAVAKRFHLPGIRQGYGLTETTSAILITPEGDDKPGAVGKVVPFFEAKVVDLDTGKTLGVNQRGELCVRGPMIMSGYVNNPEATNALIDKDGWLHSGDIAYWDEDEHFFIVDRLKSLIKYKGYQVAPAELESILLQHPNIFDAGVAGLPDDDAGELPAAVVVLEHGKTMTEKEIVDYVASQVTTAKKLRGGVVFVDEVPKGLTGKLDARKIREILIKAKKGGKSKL

[11] = cytotoxicity toward DRD oncogenic fibroblasts, dose response, cell-based, non-viral oncogenic, luminescence (AID 1934); assay type: functional; conditions: Homo sapiens
[12] = molecular target: 1-phosphatidylinositol 4,5-bisphosphate phosphodiesterase beta-3 (Homo sapiens, UniProt Q01970); test: Fluorescence-based biochemical high throughput dose response assay to identify inhibitors of phospholipase C isozymes (PLC-B3).
Sequence of 1-phosphatidylinositol 4,5-bisphosphate phosphodiesterase beta-3 (Q01970 whole entry): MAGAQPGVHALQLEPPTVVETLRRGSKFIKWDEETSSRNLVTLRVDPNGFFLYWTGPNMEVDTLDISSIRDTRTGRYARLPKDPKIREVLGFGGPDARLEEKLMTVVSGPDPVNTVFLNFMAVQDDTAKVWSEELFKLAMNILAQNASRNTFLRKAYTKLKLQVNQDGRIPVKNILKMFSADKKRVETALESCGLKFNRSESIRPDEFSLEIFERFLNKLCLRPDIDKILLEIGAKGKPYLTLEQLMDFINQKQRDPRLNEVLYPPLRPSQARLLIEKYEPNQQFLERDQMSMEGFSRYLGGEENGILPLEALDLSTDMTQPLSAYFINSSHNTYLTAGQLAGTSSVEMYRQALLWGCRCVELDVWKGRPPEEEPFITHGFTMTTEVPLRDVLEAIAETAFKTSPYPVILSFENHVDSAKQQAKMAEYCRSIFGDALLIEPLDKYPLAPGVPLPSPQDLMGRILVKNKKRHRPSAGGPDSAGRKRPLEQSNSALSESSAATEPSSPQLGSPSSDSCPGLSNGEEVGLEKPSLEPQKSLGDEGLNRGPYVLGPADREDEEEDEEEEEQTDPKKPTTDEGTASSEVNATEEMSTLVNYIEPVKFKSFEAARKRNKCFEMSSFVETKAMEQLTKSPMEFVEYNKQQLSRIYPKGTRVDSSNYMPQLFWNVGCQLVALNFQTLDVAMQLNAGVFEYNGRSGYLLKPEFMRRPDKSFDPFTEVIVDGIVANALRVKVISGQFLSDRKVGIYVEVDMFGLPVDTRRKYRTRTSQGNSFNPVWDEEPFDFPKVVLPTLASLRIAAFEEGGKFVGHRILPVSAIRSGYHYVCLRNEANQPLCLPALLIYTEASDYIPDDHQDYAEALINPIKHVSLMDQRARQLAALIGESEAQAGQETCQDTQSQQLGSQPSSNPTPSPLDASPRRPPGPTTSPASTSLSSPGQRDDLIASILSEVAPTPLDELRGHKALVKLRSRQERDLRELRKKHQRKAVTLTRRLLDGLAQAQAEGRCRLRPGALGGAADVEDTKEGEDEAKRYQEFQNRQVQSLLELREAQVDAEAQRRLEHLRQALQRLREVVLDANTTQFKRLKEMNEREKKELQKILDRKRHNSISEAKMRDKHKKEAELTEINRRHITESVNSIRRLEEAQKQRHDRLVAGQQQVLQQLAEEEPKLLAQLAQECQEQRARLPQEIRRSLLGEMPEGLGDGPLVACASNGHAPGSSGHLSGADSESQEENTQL

[13] = molecular target: 1-phosphatidylinositol 4,5-bisphosphate phosphodiesterase gamma-1 (Homo sapiens, UniProt P19174); test: Counterscreen for inhibitors of phospholipase C isozymes (PLC-B3): Fluorescence-based biochemical high throughput dose response assay to identify inhibitors of phospholipase C isozymes (PLC-gamma1).
Sequence of 1-phosphatidylinositol 4,5-bisphosphate phosphodiesterase gamma-1 (P19174 whole entry, the tested form may be a part): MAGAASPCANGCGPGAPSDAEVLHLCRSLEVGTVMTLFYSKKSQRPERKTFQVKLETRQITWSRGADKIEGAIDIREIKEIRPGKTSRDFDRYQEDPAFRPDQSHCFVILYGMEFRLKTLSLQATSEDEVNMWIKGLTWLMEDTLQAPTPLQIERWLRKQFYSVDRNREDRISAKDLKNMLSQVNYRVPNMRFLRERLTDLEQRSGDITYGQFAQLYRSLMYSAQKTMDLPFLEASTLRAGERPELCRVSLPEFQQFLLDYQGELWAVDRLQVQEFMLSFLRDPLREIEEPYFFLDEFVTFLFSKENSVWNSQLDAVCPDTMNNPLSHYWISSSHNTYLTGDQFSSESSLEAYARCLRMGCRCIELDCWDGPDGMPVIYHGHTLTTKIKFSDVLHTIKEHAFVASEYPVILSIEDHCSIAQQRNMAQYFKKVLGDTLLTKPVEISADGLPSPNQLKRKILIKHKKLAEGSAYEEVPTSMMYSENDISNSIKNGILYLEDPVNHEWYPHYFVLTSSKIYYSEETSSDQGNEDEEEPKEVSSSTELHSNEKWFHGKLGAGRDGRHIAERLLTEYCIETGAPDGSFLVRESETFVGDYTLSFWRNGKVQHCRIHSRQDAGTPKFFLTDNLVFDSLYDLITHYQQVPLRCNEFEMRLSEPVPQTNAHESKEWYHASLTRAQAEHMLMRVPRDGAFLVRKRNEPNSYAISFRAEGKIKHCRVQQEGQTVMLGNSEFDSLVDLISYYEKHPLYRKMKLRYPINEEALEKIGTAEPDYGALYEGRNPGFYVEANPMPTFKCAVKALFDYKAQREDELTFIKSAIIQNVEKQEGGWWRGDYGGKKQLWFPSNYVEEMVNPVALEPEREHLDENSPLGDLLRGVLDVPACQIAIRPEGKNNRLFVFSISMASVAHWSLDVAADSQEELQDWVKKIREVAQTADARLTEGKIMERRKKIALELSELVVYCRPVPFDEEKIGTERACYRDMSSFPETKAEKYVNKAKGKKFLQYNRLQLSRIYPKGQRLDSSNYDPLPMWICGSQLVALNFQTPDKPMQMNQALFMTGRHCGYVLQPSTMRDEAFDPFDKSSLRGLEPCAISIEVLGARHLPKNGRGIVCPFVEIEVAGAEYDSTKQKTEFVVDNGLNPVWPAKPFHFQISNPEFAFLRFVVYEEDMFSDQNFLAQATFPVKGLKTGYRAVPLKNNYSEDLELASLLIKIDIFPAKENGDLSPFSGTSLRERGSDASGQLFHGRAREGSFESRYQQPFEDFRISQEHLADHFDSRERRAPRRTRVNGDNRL

[14] = molecular target: T1, Oxysterols receptor LXR-beta (Homo sapiens, UniProt P55055); test: LXR agonists, Gal4 luciferase reporter, dose response, counter-screen for ssDAF-12 agonist project, cell-based, luminescence, HEK293, S. stercoralis campaign (AID 720737); assay type: functional; conditions: read-out: IC50 (the source's name)
T1 sequence (P55055 whole entry): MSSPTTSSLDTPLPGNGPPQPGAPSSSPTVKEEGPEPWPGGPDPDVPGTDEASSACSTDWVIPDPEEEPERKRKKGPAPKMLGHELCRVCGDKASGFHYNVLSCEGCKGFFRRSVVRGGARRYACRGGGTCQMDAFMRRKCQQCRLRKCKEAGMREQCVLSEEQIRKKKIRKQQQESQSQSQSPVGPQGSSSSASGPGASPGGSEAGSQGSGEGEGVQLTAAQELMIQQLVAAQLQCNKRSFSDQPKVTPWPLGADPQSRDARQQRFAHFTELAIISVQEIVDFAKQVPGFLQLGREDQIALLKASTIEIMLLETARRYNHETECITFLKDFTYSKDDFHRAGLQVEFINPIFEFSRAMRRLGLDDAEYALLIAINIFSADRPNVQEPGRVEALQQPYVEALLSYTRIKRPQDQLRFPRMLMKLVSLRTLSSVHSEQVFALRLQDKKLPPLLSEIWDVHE

[15] = Luminescence-based cell-based high throughput dose response assay to identify activators of the DAF-12 from the parasite S. stercoralis (ssDAF-12).; assay type: functional

SMILES: CC(C)CNC(=O)CSc1nnc2ccccn12
- EC50 (Transthyretin): > 167 µM (inactive)

SMILES: CCOc1ccc(Nc2nc(N)c3ccccc3n2)cc1
- AC50 [1]: 2.31 µM (active)
- AC50 [2]: 13.2 µM (active)
- AC50 [3]: 1.62 µM (active)
- EC50 [4]: 0.738 µM (active)
- AC50 [5]: 12.9 µM (active)
- AC50 [6]: 12.8 µM (active)
- EC50 (BJ [7]): 17.5 µM (active)
- EC50 (BJ [8]): 8.24 µM (active)
- EC50 (BJ [9]): 7.8 µM (active)
- EC50 [10]: 0.765 µM (active)
- EC50 [11]: 8.22 µM (active)

SMILES: O=C(O)C(=O)/C(=C\c1ccccc1)c1ccc2ccccc2n1
- EC50 [14]: > 67.5 µM (inactive)
- IC50 [15]: > 67.5 µM (inactive)

SMILES: Cc1ccccc1C(=O)NC1CCN(Cc2nnnn2C2CCCC2)CC1
- IC50 [12]: > 122 µM (inactive)
- IC50 [13]: > 122 µM (inactive)

Other lines, results leading:

- IC50 [12]: > 122 µM (inactive)
- IC50 [13]: 39.3 µM (inactive)
SMILES: O=Cc1cc(N=Nc2ccc(S(=O)(=O)O)cc2)ccc1O

- EC50 (Transthyretin): > 167 µM (inactive)
SMILES: Cc1cccc(NC(c2ccc(O)cc2)c2ccc3ccc(C)nc3c2O)n1 (centres undefined)
